Here are results for 18 molecules from PubChem BioAssay (NCI).

Where “and” joins values, the source holds several entries; their conditions need not be identical. Equal values may be shown once.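 96-well plates; 48 h exposure; 5 concentrations. Endpoints by linear interpolation between flanking doses. Not reached: highest tested concentration assigned. The concentration for 50% growth inhibition is given as GI50. TGI marks complete inhibition of growth.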 A value given as a limit tells only on which side of the number the result lay.

Among the test systems are CAKI-1 renal; EKVX NSCLC; M14 melanoma; K-562 leukemia; MCF7 breast; SF-539 CNS; A549 NSCLC; T-47D breast; UO-31 renal; SK-MEL-2 melanoma.
Assay in all cases: NCI-60 cell line screen, 48 h

Take `COc1ccc2c(CN3CCCC[C@H]3C(=O)O)cc3cc4c(cc3c2c1)OCO4`: the GI50 is 0.747 µM with CAKI-1 renal; 3 µM in the test with EKVX NSCLC; 3.72 µM with M14 melanoma; 1.5 µM in the test on K-562 leukemia; 0.366 µM in the test with MCF7 breast; 4.54 µM in the test on SF-539 CNS. Moreover, the GI50 in the test with A549 NSCLC was 1.1 µM; in the test on T-47D breast, 2.05 µM. Further, the TGI was 3.37 µM in the test on CAKI-1 renal; 6.77 µM in the test on EKVX NSCLC; 10.5 µM in the test on M14 melanoma; 11.1 µM in the test on K-562 leukemia; 2.8 µM in the test on MCF7 breast; 16.2 µM in the test with SF-539 CNS. The results for the TGI in the test on A549 NSCLC and with T-47D breast were 4.25 µM and 8.04 µM, respectively.
Regarding `Cc1cccc(/C=N/NC(=S)N2CCCC2)n1`, the GI50 in the test with CAKI-1 renal was 3.24 µM; in the test on EKVX NSCLC it was 3.18 µM; in the test on M14 melanoma, 0.392 µM; in the test on K-562 leukemia it was 0.17 µM; in the test on MCF7 breast, 0.169 µM; in the test with SF-539 CNS, 0.753 µM. The GI50 with UO-31 renal was 0.748 µM; in the test with A549 NSCLC, 2.5 µM; with T-47D breast it was 0.267 µM. Further, the TGI in the test with CAKI-1 renal is 1.16 µM; in the test with M14 melanoma it was 2.64 µM and 0.485 µM; with K-562 leukemia it was above 100 µM; with UO-31 renal, 4.19 µM; in the test with A549 NSCLC, above 100 µM; in the test on T-47D breast, 7.68 µM.
`CC[C@@]1(O)C(=O)OCc2c1cc1n(c2=O)Cc2cc3cc4c(cc3nc2-1)OCO4`: the values for the GI50 in the test with SK-MEL-2 melanoma, in the test with EKVX NSCLC and with K-562 leukemia were 0.204 µM, 0.415 µM and below 0.0114 µM, respectively. Further, the TGI in the test with SK-MEL-2 melanoma was 0.173 µM and 0.997 µM; in the test with K-562 leukemia, above 100 µM; in the test on SF-539 CNS, 0.0013 µM; in the test on UO-31 renal it was 0.0251 µM and < 0.015 µM; in the test with A549 NSCLC, 0.177 µM and 0.136 µM; in the test with T-47D breast it was 0.427 µM.
With `CC(=O)N1CC(C)(C)c2c(C)c(O)c(C)c(C)c21`, the TGI in the test on EKVX NSCLC, in the test with M14 melanoma, in the test with K-562 leukemia, with MCF7 breast, in the test with SF-539 CNS and with UO-31 renal was above 100 µM throughout. Also, the TGI with A549 NSCLC and in the test on T-47D breast was above 100 µM throughout.
In the case of `O=C1CCCCCCCCCCC1CN1CCCC1` (stereo unspecified), the TGI in the test on SK-MEL-2 melanoma is 99.7 µM; in the test on CAKI-1 renal it was above 100 µM; in the test with M14 melanoma, 47.2 µM; with K-562 leukemia, above 100 µM; in the test with MCF7 breast, 50.3 µM; in the test on SF-539 CNS it was 65.1 µM. The TGI in the test on UO-31 renal, with A549 NSCLC and in the test on T-47D breast was above 100 µM throughout.
Turning to `COC(C(=O)NN)c1ccccc1` (stereo unspecified), the TGI with SK-MEL-2 melanoma, in the test with CAKI-1 renal, with EKVX NSCLC, with M14 melanoma, in the test with K-562 leukemia and in the test with MCF7 breast was above 100 µM each time. The TGI in the test on SF-539 CNS, in the test with UO-31 renal and with A549 NSCLC was above 100 µM throughout.
As to `CC(C)CCCC(C)[C@H]1CCC2[C@@H]3CCC4Cc5nc6c(nc5C[C@]4(C)C3CC[C@@]21C)CC1CC[C@@H]2C(CC[C@@]3(C)C2CC[C@@H]3C(C)CCCC(C)C)[C@@]1(C)C6` (stereo partly specified), the TGI in the test on SK-MEL-2 melanoma, in the test on EKVX NSCLC, with M14 melanoma, with K-562 leukemia, with MCF7 breast and with SF-539 CNS was above 100 µM throughout. Also, the TGI in the test on UO-31 renal, in the test on A549 NSCLC and in the test on T-47D breast was above 100 µM in each case.
With `CC1CCC/C1=C(/I)C(=O)c1ccccc1` (stereo unspecified), the TGI with SK-MEL-2 melanoma was above 100 µM; in the test with CAKI-1 renal it was 69.5 µM; in the test with EKVX NSCLC, above 100 µM; with M14 melanoma, above 100 µM; in the test on K-562 leukemia, above 100 µM; in the test with SF-539 CNS, above 100 µM. Besides, the TGI in the test with UO-31 renal, in the test with A549 NSCLC and in the test with T-47D breast was above 100 µM throughout.
Consider `CC1=NN(C(=O)c2ccccc2O)C(=O)/C1=C/c1ccc(O)cc1`, for which the TGI with CAKI-1 renal is above 100 µM; in the test with EKVX NSCLC, above 100 µM; in the test with M14 melanoma, 22.4 µM; with K-562 leukemia, above 100 µM; with MCF7 breast, above 100 µM; in the test on SF-539 CNS it was 6.73 µM. The TGI in the test with A549 NSCLC and in the test with T-47D breast was above 100 µM throughout.
As to `Cc1ccc(S(=O)(=O)c2c(COC(=O)c3cccc(C)c3)c(-c3ccccc3)nn2C)cc1`, the GI50 with CAKI-1 renal, with M14 melanoma, with MCF7 breast, in the test on SF-539 CNS, with UO-31 renal and in the test on A549 NSCLC was above 100 µM in each case. Further, the GI50 in the test on T-47D breast was 8.53 µM. Also, the TGI in the test on CAKI-1 renal, in the test with M14 melanoma, in the test with MCF7 breast, in the test on SF-539 CNS, in the test on UO-31 renal and in the test with A549 NSCLC was above 100 µM throughout. Further, the TGI in the test on T-47D breast is above 100 µM.
Regarding `Cc1cc(NC(=O)NC(=O)c2ccccc2NC(=O)C(C)N)ccc1Oc1ncc(Br)cn1` (stereo unspecified), the TGI was 6.58 µM with SK-MEL-2 melanoma; 28.6 µM with EKVX NSCLC; 3.71 µM in the test with M14 melanoma; above 38.5 µM in the test with K-562 leukemia; 58.2 µM with MCF7 breast; 0.0431 µM in the test on SF-539 CNS. The TGI in the test with UO-31 renal came out at 26.9 µM; in the test on A549 NSCLC it was 35.8 µM; in the test on T-47D breast it was 29.6 µM.
Take `CCOC(=O)CCC(NC(=O)OCc1ccccc1)C(=O)NC(CCC(=O)OCC)C(=O)NC(CCC(=O)OCC)C(=O)NC(CCC(=O)OCC)C(=O)NC(CCC(=O)OCC)C(=O)NC(CCC(=O)OCC)C(=O)NC(CCC(=O)OCC)C(=O)OCC` (stereo unspecified): the TGI in the test on SK-MEL-2 melanoma, with CAKI-1 renal, with M14 melanoma, in the test on K-562 leukemia, in the test on MCF7 breast and in the test with UO-31 renal was above 100 µM in each case. Also, the TGI in the test with A549 NSCLC and in the test with T-47D breast was above 100 µM throughout.
In the case of `CC(=O)[CH-]C(=O)c1ccccc1.CC(=O)[CH-]C(=O)c1ccccc1.CC[O-].CC[O-].[Hf+4]`, the GI50 in the test with SK-MEL-2 melanoma was above 100 µM; in the test with CAKI-1 renal, above 100 µM; in the test with EKVX NSCLC, 38.2 µM; with M14 melanoma, above 100 µM; in the test on K-562 leukemia, above 100 µM; in the test on SF-539 CNS, above 100 µM. Moreover, the GI50 in the test with UO-31 renal and with A549 NSCLC was above 100 µM in each case. The TGI with SK-MEL-2 melanoma, in the test on CAKI-1 renal, in the test with EKVX NSCLC, in the test with M14 melanoma, in the test on K-562 leukemia and in the test on SF-539 CNS was above 100 µM each time. Further, the TGI in the test on UO-31 renal and with A549 NSCLC was above 100 µM throughout.
With `Cc1nc(Nc2ccccc2)sc1C(=O)CC(=O)C(=O)Nc1c(C(C)C)cccc1C(C)C`, the TGI in the test on SK-MEL-2 melanoma was above 100 µM; in the test on CAKI-1 renal, above 100 µM; in the test on EKVX NSCLC it was 89.5 µM; with M14 melanoma it was above 100 µM; in the test on K-562 leukemia, above 100 µM; with SF-539 CNS, above 100 µM. Moreover, the TGI in the test with UO-31 renal and with A549 NSCLC was above 100 µM throughout.
On to `Cc1ccccc1C1OC(=O)c2ccc3ccccc3c21` (stereo unspecified), for which the TGI amounted to 5.98 µM in the test with SK-MEL-2 melanoma; 88.4 µM with CAKI-1 renal; 17.5 µM with EKVX NSCLC; 10.9 µM in the test on M14 melanoma; 19.5 µM in the test on K-562 leukemia; 13.4 µM with SF-539 CNS. For the same molecule, the TGI came to 10.9 µM with UO-31 renal and 16.6 µM in the test with A549 NSCLC.
Regarding `CCCCOC(=O)N1CCN(/[N+]([O-])=N/Oc2ccc([N+](=O)[O-])cc2[N+](=O)[O-])CC1`, the GI50 is 4.55 µM in the test on SK-MEL-2 melanoma; 3.16 µM with CAKI-1 renal; 8.01 µM in the test with EKVX NSCLC; 5.97 µM with K-562 leukemia; 3.31 µM with MCF7 breast; 2.56 µM in the test with SF-539 CNS. The GI50 with UO-31 renal is 3.84 µM; in the test with A549 NSCLC, 21.1 µM. The TGI in the test with SK-MEL-2 melanoma is 21.8 µM; with CAKI-1 renal it was 6.77 µM; in the test with EKVX NSCLC, 23.5 µM; in the test on K-562 leukemia it was above 100 µM; with MCF7 breast it was 8.57 µM; in the test on SF-539 CNS it was 6.11 µM. Moreover, the TGI in the test on UO-31 renal came out at 41.3 µM; in the test with A549 NSCLC it was 64.2 µM.
Consider `Cc1cc([N+](=O)[O-])c(NS(=O)(=O)c2cccc(C(=O)O)c2)cc1-c1cccnc1`, for which the GI50 in the test with EKVX NSCLC, in the test on M14 melanoma, with K-562 leukemia, with MCF7 breast, in the test on SF-539 CNS and with UO-31 renal was above 100 µM each time. Further, the GI50 with A549 NSCLC and in the test with T-47D breast was above 100 µM each time. Further, the TGI in the test with EKVX NSCLC, in the test with M14 melanoma, with K-562 leukemia, with MCF7 breast, with SF-539 CNS and in the test with UO-31 renal was above 100 µM throughout. Besides, the TGI with A549 NSCLC and in the test on T-47D breast was above 100 µM in each case.
Regarding `COc1cc(OC)c(C/C=C/c2ccccc2)cc1O`, the TGI in the test with SK-MEL-2 melanoma was 41.8 µM; in the test with CAKI-1 renal, 40.9 µM; with EKVX NSCLC, 33.6 µM; with M14 melanoma, 38 µM; in the test with K-562 leukemia, 33 µM; in the test on SF-539 CNS, 29.7 µM. Moreover, the TGI worked out at 29.6 µM in the test with UO-31 renal, 46.6 µM in the test on A549 NSCLC and 23.7 µM in the test on T-47D breast.
